In patent US9198906B2, “Ketoconazole enantiomer in humans” (Cortendo AB (publ), priority 2006, dated 2015):

Assays:
[1] = tested on: patients with type 2 diabetes mellitus; test: Phase 2a trial, continuous blood pressure monitoring; type: in vivo, human; details: Visits 1 and 3, 14 daily doses
Method: (§1) Five (5) dose groups were studied.
Continuous blood pressure monitoring was performed during Visits 1 and 3.

healthy volunteers = details: published reports, e.g. Morganroth et al. 1997; cited from earlier work
[2] = tested on: patients with type 2 diabetes mellitus; test: Phase 2a trial, LDL cholesterol; type: in vivo, human
Method: as §1
(§2) The first dose of the study drug was given on Day 1 at 2200 h. Activity markers measured on Day 1 prior to administration of the drug (“Visit 1”). The last dose of study drug was given on Day 14 at 2200 h and activity markers measured on Day 15 (“Visit 3”). Measurements of safety markers were taken on Visits 1 and 3, as well as Visit 2 (Day 8) and Visit 4 (Day 28).

[3] = tested on: patients with type 2 diabetes mellitus; test: Phase 2a trial, liver function tests (AST/ALT/AP); details: Subject 04-016, KTZ 400 mg
Method: as §2

[4] = tested on: patients with type 2 diabetes mellitus; test: Phase 2a trial, fructosamine (glycemic control); type: in vivo, human
Method: as §1, §2
Fructosamine levels were measured at baseline and after two weeks of therapy (see Table 4 and FIGS. 1 and 2). […] Fructosamine levels reflect blood glucose levels over the preceding 2-3 weeks.

[5] = tested on: patients with type 2 diabetes mellitus; test: Phase 2a trial, HbA1c (glycemic control); type: in vivo, human
Method: as §1, §2
This test measure levels of glycated hemoglobin and reflects the average blood glucose level for a subject over the preceding 3 months (approximately). Elevated levels are common in diabetics. Lowering the hemoglobin A1c number can delay or prevent the development of serious eye, kidney, and nerve disease in individuals with diabetes.

[6] = tested on: patients with type 2 diabetes mellitus; test: Phase 2a trial, C-reactive protein (marker of inflammation); type: in vivo, human
Method: as §1, §2

[7] = tested on: patients with type 2 diabetes mellitus; test: Phase 2a trial, total cholesterol; type: in vivo, human
Method: as §1, §2

[8] = 400 mg po QD group, Visit 1 (baseline, before first dose)
[9] = 400 mg po QD, 14 daily doses, Visit 3 (Day 15)

## CC(=O)N1CCN(c2ccc(OCC3COC(Cn4ccnc4)(c4ccc(Cl)cc4Cl)O3)cc2)CC1 (racemic) [KTZ, 1-acetyl-4-[4-[[2-(2,4-dichlorophenyl)-2-[(1H-imidazol-1-yl)-methyl]-1,3-dioxolan-4-yl]methoxy]phenyl]piperazine, reference compound]
[1]
  effect on blood pressure readings: no reductions
Healthy volunteers
  effect on QTc interval: does not increase
[2]; [8]
  LDL cholesterol Visit 1 mean: 118.71 mg/dL
[2]; 400 mg po QD, 14 daily doses
  LDL cholesterol Mean % change: −24.73%
  LDL cholesterol change mean: -30.43 mg/dL
[2]; [9]
  LDL cholesterol Visit 3 mean: 88.29 mg/dL
[3]; Screening Visit
  ALT: 28 u/L
  AP: 110 u/L
  AST: 33 u/L
[3]; Visit 1 (pre-1st dose)
  ALT: 37 u/L
  AP: 109 u/L
  AST: 53 u/L
[3]; Visit 2
  ALT: 19 u/L
  AP: 137 u/L
  AST: 36 u/L
[3]; Visit 3 (last dose)
  ALT: 18 u/L
  AP: 103 u/L
  AST: 31 u/L
[4]; [8]
  Fructosamine Visit 1 mean: 272.57 µmol/L
[4]; 400 mg po QD, 14 daily doses
  Fructosamine Change vs Baseline mean: -2.29 µmol/L
[4]; [9]
  Fructosamine Visit 3 mean: 270.29 µmol/L
[5]; 400 mg po QD group, Visit 1 (Day 1, before first dose, baseline)
  Visit 1 HbA1c mean: 8.05%
[5]; 400 mg po QD, 14 daily doses
  HbA1c Change vs Baseline mean: −0.37%
[5]; [9]
  Visit 3 HbA1c mean: 7.68%
[6]; [8]
  C-Reactive Protein (CRP) Visit 1 mean: 2.28 mg/L
[6]; 400 mg po QD, 14 daily doses
  CRP Mean % change vs baseline: 9.78%
[6]; [9]
  C-Reactive Protein (CRP) Visit 3 mean: 2.22 mg/L
[6]; 14 daily doses
  effect on CRP: did not reduce CRP levels and actually led to an increase in CRP
[7]; [8]
  Total cholesterol Visit 1 mean: 198.14 mg/dL
[7]; 400 mg po QD, 14 daily doses
  Total cholesterol Change mean: -33.57 mg/dL
  Total cholesterol Mean % change: −15.46%
[7]; [9]
  Total cholesterol Visit 3 mean: 164.57 mg/dL
